# Where “and” joins values, the source holds several entries; their conditions need not be identical. Equal entries are not always repeated.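 Cells were grown in 96-well plates and exposed to each compound for 48 hours at five concentrations; endpoints were interpolated linearly between bracketing concentrations, or set to the highest concentration if not reached. GI50: concentration for 50% inhibition of growth. Definition used: TGI = concentration required for complete inhibition of growth.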
# How the values were obtained:
# Assay in all cases: NCI anticancer screen, dose series, 48 h
# A498 renal = system: A498 renal
# HCT-116 colon = system: HCT-116 colon
# HCT-15 colon = system: HCT-15 colon
# MOLT-4 leukemia = system: MOLT-4 leukemia
# NCI-H226 lung = system: NCI-H226 lung
# SF-295 CNS = system: SF-295 CNS
# SK-MEL-2 melanoma = system: SK-MEL-2 melanoma
# T-47D breast = system: T-47D breast
SMILES,GI50 (A498 renal),TGI (A498 renal) [µM],GI50 (HCT-116 colon),TGI (HCT-116 colon) [µM],GI50 (HCT-15 colon) [µM],TGI (HCT-15 colon) [µM],GI50 (MOLT-4 leukemia) [µM],TGI (MOLT-4 leukemia) [µM],GI50 (NCI-H226 lung) [µM],TGI (NCI-H226 lung) [µM],GI50 (SF-295 CNS) [µM],TGI (SF-295 CNS) [µM],GI50 (SK-MEL-2 melanoma) [µM],TGI (SK-MEL-2 melanoma) [µM],GI50 (T-47D breast),TGI (T-47D breast) [µM]
CC(=O)N1CCN(CCOc2ccc(C3CCN(C4=Nn5c(nnc5C(F)(F)F)CC4)CC3)cc2)CC1,12.8 µM,> 89.8,15.7 µM,> 100,14,> 100,27,> 100,34.8,> 100,12.2,> 85.9,33.7,> 100,5.21 µM,> 100
Cc1cc(O)cc2c1c(=O)c1ccccc1n2C,,> 100,,> 100,,> 100,,> 100,,> 100,,> 100,,> 100,,> 100
N#Cc1c2c(c(-c3cccs3)n(C3OC(CO)C(O)C(O)C3O)c1=S)CCc1ccccc1-2 (centres undefined),5.6 µM and 15.7 µM,> 100,7.39 µM and 15.5 µM,> 100,,> 100,,> 100,,> 100,,> 100,,> 100,> 25.1 µM and 7.83 µM,> 100
Cc1nnc(-c2ccc(-c3nc4ccccc4o3)cc2)o1,,,> 100 µM,> 100,70.8,> 100,,,,,40.1,> 100,> 100,> 100,> 100 µM,> 100
C#CCN(Cc1nc2cc(C(F)(F)F)ccc2nc1-c1ccccc1)c1ccc(F)c(F)c1,39.9 µM,> 100,38 µM,> 100,37.4,> 100,30.3,> 100,92.5,> 100,39.7,> 100,,,63.5 µM,> 100
CCOC(=O)/C(C#N)=C/Nc1ccc(-c2nc3ccccc3[nH]2)cc1,,,> 100 µM,> 100,34.1,> 100,35.1,> 100,> 100,> 100,27.4,76.8,42.6,> 100,33.9 µM,> 100
NS(=O)(=O)c1ccc(NC(=O)Nc2ccccc2F)cc1,,> 100,,> 100,,> 100,,> 100,,> 100,,> 100,,> 100,,> 100
Nc1c(C(=O)Nc2cccc(Br)c2)sc2nc3c(cc12)C(O)CCC3 (centres undefined),0.207 µM,3.91,0.483 µM,> 51.6,0.35,> 100,0.518,98,0.936,54.4,0.314,16.2,0.484,36.8,13.9 µM,> 100
Cc1sc2ncn(Cc3ccc(Cl)c(Cl)c3)c(=O)c2c1C,35.7 µM,> 100,17.4 µM,44.8,19.4,> 100,79.3,> 100,> 100,> 100,3.85,22.7,27.7,> 100,24.8 µM,> 100
c1ccc2nc(OCCN3CC3)ccc2c1,14.2 µM,30,2.39 µM,15.5,13.3,46.1,4.04,59,16.6,38.6,11.6,35.4,13.5,31.6,12.4 µM,30.6
COc1cccc(C2=C(c3cn(C)c4cccc(OC)c34)C(=O)NC2=O)c1,4.9 µM,> 25,9.55 µM,> 25,3.41,> 25,12.5,> 25,> 25,> 25,7.05,> 25,7.75,> 25,13.7 µM,> 25
Oc1c(CN2CCOCC2)cc(COCc2ccccc2)c2cccnc12,16.5 µM,> 100,2.82 µM,> 100,0.286,13.3,2.57,17.7,4.65,36.8,3.68,30.6,3.22,59.1,2.63 µM,> 100
COc1cc(-c2nn(-c3ccc(NC(=O)c4cc(Cl)cc(Cl)c4)cc3)cc2-c2ccncc2)ccc1Cl,> 100 µM,> 100,16.3 µM,> 100,,,4.83,> 100,> 100,> 100,,,> 100,> 100,> 100 µM,> 100
CCOC(=S)SCN1C(=O)c2ccccc2S1(=O)=O,19.8 µM,42,13.6 µM,26.5,19.2,36.1,32.7,> 100,29.2,80.9,18,59.2,44.5,> 100,24.2 µM,80.5
O=S(=O)(O)ONC1=NCCN1,,,65.1 µM,> 100,> 100,> 100,49.7,> 100,> 100,> 100,> 100,> 100,> 100,> 100,38.8 µM,> 100
O=[As]c1ccc(C(=O)c2ccc(Oc3ccccc3)cc2)cc1 (centres undefined),0.141 µM,0.295,0.0415 µM,0.152,0.0362,0.15,0.0333,0.19,0.106,0.226,0.15,0.327,0.118,0.287,0.0316 µM,0.156
